The record followed here is ChEMBL document CHEMBL6074633, “Assessing the inhibitory effects of some secondary amines, thioureas and 1,3-dimethyluracil conjugates of (-)-cytisine and thermopsine on the RNA-dependent RNA polymerase of SARS-CoV-1 and SARS-CoV-2” (Bioorg Med Chem Lett, 2024).

In data set [1] the target is Replicase polyprotein 1ab (Severe acute respiratory syndrome coronavirus 2) (UniProt P0DTD1). Put plainly: Inhibition of SARS CoV-2 RdRp at 10 uM incubated for 2 hrs by fluorescence based assay relative to control.
Data set [2] concerns SARS-CoV-2. It counts as functional, organism-based.
Data set [3] deals with SARS-CoV-2. It counts as functional, organism-based. The settings on record: Severe acute respiratory syndrome coronavirus 2; Calu-3; dose <= 1.0 µM, time 96.0 hrs.
The target in data set [4] is Replicase polyprotein 1ab (Severe acute respiratory syndrome coronavirus 2) (UniProt P0DTD1). Put plainly: (§1) Inhibition of SARS CoV-2 RdRp incubated for 2 hrs by fluorescence based assay.
For data set [5], the target named is Replicase polyprotein 1ab (Severe acute respiratory syndrome coronavirus 2, UniProt P0DTD1). The description is as §1.
The nature of data set [6]: Cytotoxicity against human Calu-3 cells assessed as cell viability incubated for 96 hrs by MTT assay. It counts as toxicity, cell-based.
Data set [7] has as its system SARS-CoV. It counts as functional, organism-based. The settings on record: Severe acute respiratory syndrome-related coronavirus.
For data set [8], the system named is SARS-CoV. It counts as functional, organism-based. The conditions noted are these: Severe acute respiratory syndrome-related coronavirus; Calu-3; dose <= 1.0 µM, time 120.0 hrs.
Data set [9] can be described thus: in vitro. The conditions noted are these: human, Calu-3 cells.
In data set [10] the test system is SARS-CoV. It counts as functional, organism-based. The conditions noted are these: Severe acute respiratory syndrome-related coronavirus; Calu-3; dose <= 1.0 µM, time 96.0 hrs.
Data set [11] deals with SARS-CoV-2. It counts as functional, organism-based. The settings on record: Severe acute respiratory syndrome coronavirus 2; Calu-3; dose <= 1.0 µM, time 120.0 hrs.
Data set [12] has as its system SARS-CoV-2. Put plainly: Antiviral activity against SARS CoV-2 replicon-based SRIP. It counts as functional, organism-based. The conditions noted are these: Severe acute respiratory syndrome coronavirus 2.

Structures are written as SMILES. pEC50, pIC50: −log10 of the molar value. Calls of active or inactive are those of the source. The calls are words filed in the database; no cut-off is given here.

Turning to `CC(C)NC(=S)Nc1ccc2n(c1=O)C[C@H]1C[C@@H]2CN(C)C1`, the inhibition in data set [1] is under 38%.

Consider `Cn1cc(CNc2ccc3n(c2=O)C[C@H]2C[C@@H]3CN3CCCC[C@@H]23)c(=O)n(C)c1=O`, for which the inhibition in data set [1] was under 38%.

With `CN1C[C@@H]2C[C@H](C1)c1ccc(NC/C=C/c3ccccc3)c(=O)n1C2`, the inhibition in [1] was under 38%.

On to `COC(=O)CN1C[C@@H]2C[C@H](C1)c1ccc(NCc3cn(C)c(=O)n(C)c3=O)c(=O)n1C2`, for which the inhibition in data set [1] is under 38%.

`C=CCNC(=S)N1C[C@@H]2C[C@H](C1)c1ccc([N+](=O)[O-])c(=O)n1C2`: the inhibition in data set [1] is under 38%.

Regarding `CCOC(=O)CNC(=S)Nc1ccc2n(c1=O)C[C@H]1C[C@@H]2CN(C)C1`, the inhibition in data set [1] was under 38%.

In turn, `CN1C[C@@H]2C[C@H](C1)c1ccc(NCc3ccccc3O)c(=O)n1C2` yielded an inhibition in data set [1] of under 38%.

Regarding `Cn1cc(CNc2ccc3n(c2=O)C[C@H]2C[C@@H]3CN(Cc3ccccc3)C2)c(=O)n(C)c1=O`, the pEC50 in data set [2] (Severe acute respiratory syndrome coronavirus 2, Calu-3, 96 h) is 5.83; in data set [7] (Calu-3, 96 h), 6.92. For the same compound, the Activity entry was “Dose-dependent-effect” in data set [2] (Severe acute respiratory syndrome coronavirus 2, Calu-3, dose 0.1-10 µM, time 96.0 hrs) and “Dose-dependent-effect” in data set [7] (Calu-3, dose 0.1-10 µM, time 96.0 hrs). Moreover, the result in data set [3], in [8], in data set [10] and in data set [11] was Active. Further, the inhibition result was “Dose-dependent-effect” in data set [4] and 64% in [1]. The same compound showed a negative logarithm of the IC50 (pIC50) in data set [5] of 5.11. Also, in data set [6], the CC50 at 96 h is over 100000 nM. For the same compound, the selectivity ratio in data set [9] was over 68.

In data set [1], `O=c1ccc(Cl)c2n1C[C@H]1C[C@@H]2CN(C(=S)Nc2ccccc2)C1` returned an inhibition of under 38%.

For `CCC(CC)COC(=O)[C@H](C)N[P@](=O)(OC[C@H]1O[C@@](C#N)(c2ccc3c(N)ncnn23)[C@H](O)[C@@H]1O)Oc1ccccc1` [REMDESIVIR], the negative logarithm of the EC50 (pEC50) in data set [12] is 6.77.

Consider `CC(C)C[C@H](NC(=O)OCc1ccccc1)C(=O)N[C@@H](C[C@@H]1CCNC1=O)C(O)S(=O)(=O)O` (some centres undefined), for which, in [12], the pEC50 is 6.77.

`O=c1cccc2n1C[C@H]1C[C@@H]2CN(C(=S)Nc2ccccc2)C1` yielded an inhibition in data set [1] of under 38%.
